Laboratory results published in US20100104565A1, “COMBINATIONS COMPRISING DMXAA FOR THE TREATMENT OF CANCER” (ANTISOMA RESEARCH LIMITED, priority 2005, published 2010).
Read-outs that look alike come from different tables or passages of the source.

Assays:
[1] = test system: A549 (lung carcinoma) xenografts; assay: A549 human lung carcinoma xenograft study in nude athymic mice; type: in vivo
Excerpt: Xenografts for human lung cancer are set-up in groups of nude, athymic mice. The cell line selected was A549 (ATCC number CCL-185), a lung carcinoma.

human tumours = details: phase I monotherapy, cited from earlier work
[2] = with thalidomide, cited from earlier work
[3] = test system: glucoronidation and 6-methylhydroxylation of DMXAA in mouse liver microsomes; details: diclofenac 100 μM; cited from earlier work
[4] = test system: glucoronidation and 6-methylhydroxylation of DMXAA in human liver microsomes; details: diclofenac 100 μM; cited from earlier work
[5] = diclofenac 100 mg/kg i.p., cited from earlier work

SMILES: Cc1ccc2c(=O)c3cccc(CC(=O)O)c3oc2c1C [DMXAA, 5,6-dimethylxanthenone-4-acetic acid]
- Drug deaths ([1]; A549 xenografts, DMXAA 21 mg/kg, Erbitux 33 mg/kg by injection, deaths/mice per group): 2/10
- Response CR ([1]; Complete Response (cure; undetectable tumour over two weeks), Table 2): 0
- Response PD ([1]; Progressive Disease (≧50% increase in tumour size), Table 2): 2/10
- Response SD ([1]; Stable Disease (does not satisfy criteria for PR or PD), Table 2): 16
- Tumour Growth Delay ([1]; difference in days for treated versus control tumours to quadruple in volume): 16 days
- TTP ([1]; median time to disease progression): 16 days
- Regression Duration ([1]; number of days that tumour volume is less than the original treatment volume): 0 days
- Median VQT (Range; days) ([1]; tumour volume quadrupling time, A549 xenografts): 48 days
- tumour blood flow (dynamic MRI) (human tumours; well-tolerated doses): significant reduction in tumour blood flow
- tumour responses (human tumours): very few tumour responses

SMILES: O=C1CCC(N2C(=O)c3ccccc3C2=O)C(=O)N1 (stereo not drawn) [Thalidomide, thalidomide]
- increase of the AUC of DMXAA ([2]; liver): 1.8 times
- increase of the AUC of DMXAA ([2]; plasma): 1.8 times
- increase of the AUC of DMXAA ([2]; spleen): 1.8 times
- increase of the AUC of DMXAA ([2]; tumour): three times

SMILES: O=C(O)Cc1ccccc1Nc1c(Cl)cccc1Cl [diclofenac]
- inhibition of 6-methylhydroxylation of DMXAA [3]: > 54%
- inhibition of glucoronidation of DMXAA [3]: > 70%
- inhibition of 6-methylhydroxylation of DMXAA [4]: > 54%
- inhibition of glucoronidation of DMXAA [4]: > 70%
- increase in the plasma DMXAA AUC ([5]; female mice): 31%
- increase in DMXAA T1/2 ([5]; male and female mice, P<0.05): threefold increase
- increase in the plasma DMXAA AUC ([5]; male mice): 24%
